Measured values from the supplement of paper PMC9938120.

How the values were obtained:
Assay in all cases: drug sensitivity score (DSS3, normalised partial AUC of % inhibition dose-response) (DSS (score)); higher = more sensitive (stronger inhibition of viability); extreme values may be limits of the assay
[1] = test system: FMOC17 (patient-derived low-grade serous ovarian cancer cells); details: 72 h; library: FO5A; assay format: 2D, 384-well, CellTiter-Glo
Outline: (§1)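 On 384-well flat clear-bottom plates carrying compounds at five concentrations across a 10,000-fold range, patient-derived ovarian cancer cells below passage 10 were incubated for 72 h at 37 °C with 5% CO2. CellTiter-Glo readout of viability was processed in Breeze. A higher drug sensitivity score, defined as the partial area under the percent-inhibition dose-response curve divided by the log of the upper asymptote, means greater sensitivity.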

[2] = test system: FMOC27 (patient-derived low-grade serous ovarian cancer cells); details: 72 h; library: FO5A; assay format: 2D, 384-well, CellTiter-Glo
Outline: as §1

[3] = test system: FMOC22 (patient-derived mucinous ovarian cancer cells); details: 72 h; library: FO5A; assay format: 2D, 384-well, CellTiter-Glo
Outline: as §1

[4] = test system: FMOC02_2 (patient-derived low-grade serous ovarian cancer cells); details: 72 h; library: FO5A; assay format: 2D, 384-well, CellTiter-Glo
Outline: as §1

[5] = test system: FMOC14 (patient-derived high-grade serous ovarian cancer cells); details: 72 h; library: FO5A; assay format: 2D, 384-well, CellTiter-Glo
Outline: as §1

[6] = test system: FMOC06 (patient-derived mucinous ovarian cancer cells); details: 72 h; library: FO5A; assay format: 2D, 384-well, CellTiter-Glo
Outline: as §1

[7] = test system: FMOC09 (patient-derived high-grade serous ovarian cancer cells); details: 72 h; library: FO5A; assay format: 2D, 384-well, CellTiter-Glo
Outline: as §1

[8] = test system: FMOC11 (patient-derived high-grade serous ovarian cancer cells); details: 72 h; library: FO5A; assay format: 2D, 384-well, CellTiter-Glo
Outline: as §1

[9] = test system: FMOC02_3 (patient-derived low-grade serous ovarian cancer cells); details: 72 h; library: FO5A; assay format: 2D, 384-well, CellTiter-Glo
Outline: as §1

[10] = test system: FMOC03 (patient-derived mucinous ovarian cancer cells); details: 72 h; library: FO5A; assay format: 2D, 384-well, CellTiter-Glo
Outline: as §1

[11] = test system: FMOC25_1 (patient-derived low-grade serous ovarian cancer cells); details: 72 h; library: FO4B; assay format: 2D, 384-well, CellTiter-Glo
Outline: as §1

[12] = test system: FMOC28 (patient-derived low-grade serous ovarian cancer cells); details: 72 h; library: FO5A; assay format: 2D, 384-well, CellTiter-Glo
Outline: as §1

[13] = test system: FMOC24 (patient-derived high-grade serous ovarian cancer cells); details: 72 h; library: FO5A; assay format: 2D, 384-well, CellTiter-Glo
Outline: as §1

[14] = test system: FMOC04 (patient-derived high-grade serous ovarian cancer cells); details: 72 h; library: FO5A; assay format: 2D, 384-well, CellTiter-Glo
Outline: as §1

[15] = test system: FMOC25_2 (patient-derived low-grade serous ovarian cancer cells); details: 72 h; library: FO5A; assay format: 2D, 384-well, CellTiter-Glo
Outline: as §1

[16] = test system: FMOC02_1 (patient-derived low-grade serous ovarian cancer cells); details: 72 h; library: FO5A; assay format: 2D, 384-well, CellTiter-Glo
Outline: as §1

Row | SMILES | drug sensitivity score [1] | drug sensitivity score [2] | drug sensitivity score [3] | drug sensitivity score [4] | drug sensitivity score [5] | drug sensitivity score [6] | drug sensitivity score [7] | drug sensitivity score [8] | drug sensitivity score [9] | drug sensitivity score [10] | drug sensitivity score [11] | drug sensitivity score [12] | drug sensitivity score [13] | drug sensitivity score [14] | drug sensitivity score [15] | drug sensitivity score [16]
1 | COc1cc([C@@H]2c3cc4c(cc3[C@@H](O[C@@H]3O[C@@H]5CO[C@@H](c6cccs6)O[C@H]5[C@H](O)[C@H]3O)[C@H]3COC(=O)[C@H]23)OCO4)cc(OC)c1O [Teniposide] | 0 | 0 | 2.5 | 0 | 0 | 0 | 0 | 0 | 0 | 0.5 | 6.4 | 0 | 2.75 | 0 | 0 | 0
2 | COc1cc2c(NC3CCN(C(C)C)CC3)nc(C3CCCCC3)nc2cc1OCCCN1CCCC1 [UNC0638] | 4.7 | 2.1 | 2 | 0.5 | 3.1 | 1.7 | 1.9 | 3.5 | 5.4 | 0 | 0.2 | 0 | 7.6 | 4.3 | 6.5 | 5.5
3 | C[C@H]1Oc2cc(cnc2N)-c2c(nn(C)c2C#N)CN(C)C(=O)c2ccc(F)cc21 | 0 | 0 | 0 | 3.2 | 0 | 3.4 | 1.6 | 0 | 3.1 | 0 | 0 | 0 | 1.6 | 0 | 1.6 | 0.8
4 | Cc1cc2c(F)c(Oc3ncnn4cc(OC[C@@H](C)O)c(C)c34)ccc2[nH]1 [Brivanib] | 0 | 0 | 0 | 0 | 0 | 0 | 0 | 0 | 0 | 0 | 0 | 0 | 0 | 0 | 0 | 0
5 | CCN(c1cc(-c2ccc(CN3CCOCC3)cc2)cc(C(=O)NCc2c(C)cc(C)[nH]c2=O)c1C)C1CCOCC1 [Tazemetostat] | 0 | 0 | 0 | 0 | 0 | 0.5 | 0 | 0 | 0.1 | 0 | 0 | 0 | 0 | 0 | 0 | 0
6 | CO[C@H]1C[C@@H]2CC[C@@H](C)[C@@](O)(O2)C(=O)C(=O)N2CCCC[C@H]2C(=O)O[C@H]([C@H](C)C[C@@H]2CC[C@@H](O)[C@H](OC)C2)CC(=O)[C@H](C)/C=C(\C)[C@@H](O)[C@@H](OC)C(=O)[C@H](C)C[C@H](C)/C=C/C=C/C=C/1C [Sirolimus] | 4.7 | 3.1 | 4 | 7.3 | 1 | 2.5 | 1.4 | 2.1 | 10 | 2 | 8.9 | 3.3 | 6.1 | 1.1 | 6.3 | 6.3
7 | COc1cc2nccc(Oc3ccc(NC(=O)C4(C(=O)Nc5ccc(F)cc5)CC4)cc3)c2cc1OC [Cabozantinib] | 0 | 0.8 | 0 | 0.1 | 0 | 0 | 0 | 0 | 0 | 0 | 0 | 0 | 4.45 | 0 | 0 | 1
8 | O=C1CCC(N2C(=O)c3ccccc3C2=O)C(=O)N1 (configuration not stated) [Thalidomide] | 0 | 0.1 | 0 | 0 | 0 | 0 | 0 | 0 | 0 | 0 | 0 | 0 | 0 | 0 | 0 | 0
9 | O=c1sn(-c2cccc3ccccc23)c(=O)n1Cc1ccccc1 [Tideglusib] | 0 | 0 | 0 | 1 | 0 | 0 | 0 | 0 | 0 | 0 | 0.3 | 0 | 0 | 0 | 0 | 0
10 | COc1cc(OC2CCN(C)CC2)ccc1Nc1ncc2c(n1)n(C1CCCC1)c(=O)n2C [AZ 3146] | 4.7 | 4.4 | 0.8 | 5.2 | 0.9 | 2.9 | 1.1 | 1.3 | 9 | 0.7 | 3.7 | 2.3 | 6.25 | 1.3 | 6 | 5.2
11 | CCCc1cc(C)[nH]c(=O)c1CNC(=O)c1cc(-c2ccnc(N3CCN(C)CC3)c2)cc2c1cnn2C(C)C [GSK343] | 0.3 | 0 | 0 | 0 | 0 | 0 | 0.1 | 0 | 0 | 0 | 1.6 | 2 | 0.55 | 0 | 0.1 | 0
12 | CCCCCOC(=O)Nc1nc(=O)n([C@@H]2O[C@H](C)[C@@H](O)[C@H]2O)cc1F [Capecitabine] | 0.5 | 0 | 2.5 | 0 | 0.7 | 0 | 0 | 0.1 | 0 | 0.4 | 0 | 0 | 0.6 | 1.95 | 0.7 | 0
13 | Cc1ccc(F)c(NC(=O)Nc2ccc(-c3cccc4[nH]nc(N)c34)cc2)c1 [Linifanib] | 0 | 0 | 0 | 0 | 0 | 0 | 0 | 0 | 0 | 0 | 0 | 0 | 0 | 0 | 0 | 0
14 | C[C@]12CC[C@H](O)CC1=CC[C@@H]1[C@@H]2CC[C@]2(C)C(c3cccnc3)=CC[C@@H]12 [Abiraterone] | 0 | 0 | 0 | 1.3 | 2.3 | 0.1 | 0 | 0 | 0 | 0 | 0.3 | 0.6 | 4.9 | 0.05 | 0.6 | 0
15 | CNC(=O)c1cc(COc2nnc(Nc3ccc(Cl)cc3)c3ccoc23)ccn1 [Telatinib] | 2.5 | 0 | 0 | 1.7 | 0 | 0 | 0 | 0 | 0 | 0 | 0 | 0 | 0.4 | 0.05 | 0 | 1.2
16 | Cn1cncc1[C@@](N)(c1ccc(Cl)cc1)c1ccc2c(c1)c(-c1cccc(Cl)c1)cc(=O)n2C [Tipifarnib] | 1.8 | 3.3 | 5.3 | 6.2 | 3.5 | 8.8 | 2.2 | 5.3 | 9.5 | 6 | 9.7 | 5.8 | 4.1 | 4.45 | 9.8 | 6.9
17 | O=C(c1ccc(OCCN2CCCCC2)cc1)c1c(-c2ccc(O)cc2)sc2cc(O)ccc12 [Raloxifene] | 1.8 | 0.2 | 1.2 | 5.8 | 2.6 | 4.5 | 0.7 | 2.9 | 4.5 | 0.7 | 1.7 | 0 | 8.45 | 1.95 | 3.7 | 5.5
18 | CC[C@H](C)C(=O)O[C@H]1C[C@H](O)C=C2C=C[C@H](C)[C@H](CC[C@@H](O)C[C@@H](O)CC(=O)O)[C@H]21 [Pravastatin] | 0 | 0 | 0 | 0 | 0 | 0.8 | 0 | 0 | 0 | 0 | 0 | 0 | 0.35 | 0 | 0 | 0
19 | Cc1cc(Nc2ncc(Cl)c(Nc3ccccc3S(=O)(=O)C(C)C)n2)c(OC(C)C)cc1C1CCNCC1 [Ceritinib] | 2.4 | 2.2 | 1.7 | 4.2 | 0 | 3.7 | 3.1 | 0.5 | 4.3 | 1.5 | 0.6 | 0 | 0.35 | 3.15 | 4.8 | 2.6
20 | NCCNc1ccc(NCCN)c2c1C(=O)c1ccncc1C2=O [Pixantrone] | 0.9 | 0 | 0 | 0 | 0 | 0 | 0 | 1.7 | 1.5 | 0 | 0.7 | 1.6 | 0 | 0.2 | 1.8 | 0
21 | CC(=O)Nc1ccc(C(=O)Nc2ccccc2N)cc1 [Tacedinaline] | 1.1 | 0 | 0 | 1.3 | 0.6 | 3.7 | 0 | 1 | 2 | 0 | 0 | 1.7 | 2.05 | 0 | 0 | 0.7
22 | CC[C@H](Nc1ncnc2[nH]cnc12)c1nc2cccc(F)c2c(=O)n1-c1ccccc1 [Idelalisib] | 2.8 | 0.4 | 0.1 | 2.4 | 0 | 2.7 | 2 | 1.9 | 3.7 | 0.4 | 1.4 | 3.3 | 0 | 0.1 | 1.1 | 2.3
